Measured values as given in patent US9340590B2 (priority 2011, dated 2016).
Read-outs that look alike come from different tables or passages of the source. Positions of bridges follow the written chain, without caps; N, C: chain ends. Non-standard residues stand in square brackets, D forms with d. Residues, ends and D or L forms follow the SMILES beside them. 2Nal = N[C@@H](Cc1ccc2ccccc2c1)C(=O)O; Abu = CC[C@H](N)C(=O)O

Key:
Test in all cases: cell-based
hNav1.3 = hNav1.3 (Homo sapiens, UniProt Q9NY46); details: IonWorks Quattro, read-out: IWQ Use Nav1.3
hNav1.7 = hNav1.7 (Homo sapiens, UniProt Q15858); format: cell-based
hNav1.7, sequence (Q15858 whole entry, looked up): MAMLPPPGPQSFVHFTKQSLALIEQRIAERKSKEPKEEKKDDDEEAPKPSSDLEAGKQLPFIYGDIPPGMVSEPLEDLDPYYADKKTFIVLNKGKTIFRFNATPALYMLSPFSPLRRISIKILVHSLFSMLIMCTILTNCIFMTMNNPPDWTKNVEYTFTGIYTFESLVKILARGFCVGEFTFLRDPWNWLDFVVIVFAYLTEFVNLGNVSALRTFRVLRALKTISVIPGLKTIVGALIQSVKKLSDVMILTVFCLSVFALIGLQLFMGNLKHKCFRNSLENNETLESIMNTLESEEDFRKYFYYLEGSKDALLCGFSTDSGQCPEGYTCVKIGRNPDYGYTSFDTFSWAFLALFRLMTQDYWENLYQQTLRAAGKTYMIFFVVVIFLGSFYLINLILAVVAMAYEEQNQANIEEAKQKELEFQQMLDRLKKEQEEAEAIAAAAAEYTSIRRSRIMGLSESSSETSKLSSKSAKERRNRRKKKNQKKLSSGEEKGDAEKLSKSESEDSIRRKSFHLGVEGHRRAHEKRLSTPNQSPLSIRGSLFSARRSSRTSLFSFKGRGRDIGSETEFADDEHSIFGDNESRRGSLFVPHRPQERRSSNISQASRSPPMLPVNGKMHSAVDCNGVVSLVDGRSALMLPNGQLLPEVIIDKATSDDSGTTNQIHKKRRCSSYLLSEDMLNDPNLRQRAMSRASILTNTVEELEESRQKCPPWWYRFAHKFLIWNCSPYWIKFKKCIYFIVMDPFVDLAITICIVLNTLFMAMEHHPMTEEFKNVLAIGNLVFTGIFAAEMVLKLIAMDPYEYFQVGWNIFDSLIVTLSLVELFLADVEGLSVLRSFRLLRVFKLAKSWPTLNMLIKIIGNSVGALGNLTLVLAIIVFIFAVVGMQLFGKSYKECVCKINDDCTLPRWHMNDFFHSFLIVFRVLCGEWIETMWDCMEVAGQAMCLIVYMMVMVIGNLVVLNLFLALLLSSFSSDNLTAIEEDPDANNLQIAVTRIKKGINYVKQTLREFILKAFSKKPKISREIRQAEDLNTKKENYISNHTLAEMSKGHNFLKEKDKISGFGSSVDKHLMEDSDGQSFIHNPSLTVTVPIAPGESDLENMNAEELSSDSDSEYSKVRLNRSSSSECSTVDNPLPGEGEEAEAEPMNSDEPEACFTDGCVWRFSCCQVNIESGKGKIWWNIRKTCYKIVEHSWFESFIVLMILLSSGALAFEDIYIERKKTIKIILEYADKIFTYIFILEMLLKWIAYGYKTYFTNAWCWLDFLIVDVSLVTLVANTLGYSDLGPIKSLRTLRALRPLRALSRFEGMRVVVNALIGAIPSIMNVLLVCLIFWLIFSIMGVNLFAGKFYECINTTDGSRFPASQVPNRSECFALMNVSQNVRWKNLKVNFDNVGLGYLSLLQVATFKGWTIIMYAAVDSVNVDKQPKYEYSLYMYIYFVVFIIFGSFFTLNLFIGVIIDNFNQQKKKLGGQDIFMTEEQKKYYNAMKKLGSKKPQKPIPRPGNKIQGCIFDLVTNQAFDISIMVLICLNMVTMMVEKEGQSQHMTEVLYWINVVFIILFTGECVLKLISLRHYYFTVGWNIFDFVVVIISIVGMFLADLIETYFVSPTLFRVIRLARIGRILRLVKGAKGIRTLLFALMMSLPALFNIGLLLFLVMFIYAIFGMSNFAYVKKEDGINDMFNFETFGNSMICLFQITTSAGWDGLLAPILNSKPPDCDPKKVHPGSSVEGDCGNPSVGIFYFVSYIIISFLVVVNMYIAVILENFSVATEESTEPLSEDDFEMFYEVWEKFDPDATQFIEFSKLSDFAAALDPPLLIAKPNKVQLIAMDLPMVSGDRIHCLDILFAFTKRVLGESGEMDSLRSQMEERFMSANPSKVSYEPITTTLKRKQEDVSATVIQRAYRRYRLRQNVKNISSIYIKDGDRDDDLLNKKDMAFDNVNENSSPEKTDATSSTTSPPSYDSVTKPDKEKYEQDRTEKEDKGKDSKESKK

hNav1.5 = hNav1.5 (Homo sapiens, UniProt Q14524); details: IonWorks Quattro, read-out: IWQ Use Nav1.5
hNav1.5, sequence (Q14524 whole entry, looked up): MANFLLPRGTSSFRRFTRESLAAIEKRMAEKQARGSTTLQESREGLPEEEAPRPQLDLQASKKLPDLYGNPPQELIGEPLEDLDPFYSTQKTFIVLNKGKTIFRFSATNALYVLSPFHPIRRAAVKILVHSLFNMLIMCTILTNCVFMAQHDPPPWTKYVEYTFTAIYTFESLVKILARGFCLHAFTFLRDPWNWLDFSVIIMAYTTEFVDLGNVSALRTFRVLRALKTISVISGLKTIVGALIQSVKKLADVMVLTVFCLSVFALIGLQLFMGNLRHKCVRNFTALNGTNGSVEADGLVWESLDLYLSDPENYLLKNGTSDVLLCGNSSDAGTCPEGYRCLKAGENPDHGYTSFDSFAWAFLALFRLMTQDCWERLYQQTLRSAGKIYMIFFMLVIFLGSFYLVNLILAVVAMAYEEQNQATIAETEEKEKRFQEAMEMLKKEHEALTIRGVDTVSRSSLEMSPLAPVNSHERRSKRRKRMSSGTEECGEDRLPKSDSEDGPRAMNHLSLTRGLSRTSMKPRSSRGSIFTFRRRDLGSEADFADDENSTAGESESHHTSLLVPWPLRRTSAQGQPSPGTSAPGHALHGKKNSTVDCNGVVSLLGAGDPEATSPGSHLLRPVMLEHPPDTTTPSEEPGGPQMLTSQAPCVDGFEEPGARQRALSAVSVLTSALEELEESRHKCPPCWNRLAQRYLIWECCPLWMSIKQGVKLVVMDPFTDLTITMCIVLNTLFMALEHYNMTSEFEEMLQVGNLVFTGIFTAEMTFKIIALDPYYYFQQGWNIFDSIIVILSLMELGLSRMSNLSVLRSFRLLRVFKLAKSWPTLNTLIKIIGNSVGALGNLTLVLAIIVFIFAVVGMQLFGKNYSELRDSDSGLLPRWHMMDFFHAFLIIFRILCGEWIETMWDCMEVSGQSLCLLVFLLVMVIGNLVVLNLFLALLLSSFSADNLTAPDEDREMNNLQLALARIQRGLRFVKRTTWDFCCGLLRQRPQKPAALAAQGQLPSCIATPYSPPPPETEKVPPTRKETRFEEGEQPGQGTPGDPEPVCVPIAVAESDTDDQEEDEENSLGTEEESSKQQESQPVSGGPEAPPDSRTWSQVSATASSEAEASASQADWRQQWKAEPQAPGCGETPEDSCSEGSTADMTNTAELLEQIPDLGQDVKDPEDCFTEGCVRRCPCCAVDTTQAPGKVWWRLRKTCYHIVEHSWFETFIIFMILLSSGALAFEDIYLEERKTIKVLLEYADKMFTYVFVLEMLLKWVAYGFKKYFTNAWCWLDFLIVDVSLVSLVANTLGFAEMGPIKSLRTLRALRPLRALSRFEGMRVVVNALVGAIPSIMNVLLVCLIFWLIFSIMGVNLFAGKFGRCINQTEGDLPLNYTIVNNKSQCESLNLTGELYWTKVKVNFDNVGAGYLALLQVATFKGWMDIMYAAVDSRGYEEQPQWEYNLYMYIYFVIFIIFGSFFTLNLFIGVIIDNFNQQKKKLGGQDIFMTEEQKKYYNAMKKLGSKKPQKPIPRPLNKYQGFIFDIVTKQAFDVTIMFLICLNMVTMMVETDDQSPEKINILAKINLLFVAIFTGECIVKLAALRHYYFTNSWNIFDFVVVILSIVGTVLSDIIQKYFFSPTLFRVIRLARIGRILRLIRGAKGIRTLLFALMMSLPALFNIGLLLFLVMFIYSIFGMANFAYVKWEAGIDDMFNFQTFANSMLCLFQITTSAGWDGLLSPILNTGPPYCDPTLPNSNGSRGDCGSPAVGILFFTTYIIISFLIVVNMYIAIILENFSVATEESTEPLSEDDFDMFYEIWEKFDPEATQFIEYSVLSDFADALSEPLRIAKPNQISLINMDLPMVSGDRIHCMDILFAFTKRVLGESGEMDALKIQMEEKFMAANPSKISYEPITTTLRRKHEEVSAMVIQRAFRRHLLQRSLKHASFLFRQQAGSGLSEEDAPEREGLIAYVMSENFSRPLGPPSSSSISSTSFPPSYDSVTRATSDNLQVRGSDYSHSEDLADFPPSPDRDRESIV

[1] = clamped to −110 mV, depolarized to −10 mV, 5 min after compound, n=2
[2] = IonWorks Quattro, clamped to −110 mV, depolarized to −10 mV, 5 min after compound, n=2, read-out: IWQ Use Nav1.7

Compound `CC[C@H](C)[C@@H]1NC(=O)[C@@H]2CSSC[C@@H]3NC(=O)[C@H](C(C)C)NC(=O)[C@H](CC(C)C)NC(=O)[C@H](CC(N)=O)NC(=O)[C@@H]4CCCN4C(=O)[C@H](CCCNC(=N)N)NC(=O)[C@H](CSSC[C@H](NC(=O)[C@H](CC(=O)O)NC(=O)[C@@H](N)Cc4c[nH]c5ccccc45)C(=O)N[C@@H](CC(C)C)C(=O)NCC(=O)N[C@@H](Cc4ccccc4)C(=O)N[C@@H](CCSC)C(=O)N[C@@H](CCCNC(=N)N)C(=O)N[C@@H](CCCCN)C(=O)N2)NC(=O)[C@H](CSSC[C@@H](C(=O)N[C@@H](CCCCN)C(=O)N[C@@H](Cc2ccc(O)cc2)C(=O)N[C@H](C(=O)N[C@@H](Cc2ccccc2)C(N)=O)C(C)C)NC(=O)[C@H](Cc2c[nH]c4ccccc24)NC(=O)[C@H](CCCCN)NC(=O)[C@H](Cc2cnc[nH]2)NC(=O)[C@H]([C@@H](C)O)NC(=O)[C@H](CCCNC(=N)N)NC(=O)[C@H](CO)NC3=O)NC(=O)[C@H](CCCCN)NC(=O)[C@H](CC(=O)O)NC(=O)[C@H](CC(N)=O)NC(=O)[C@H](CC(=O)O)NC(=O)[C@@H]2CCCN2C1=O` [SEQ ID NO: 106] has an IC50 (hNav1.3; [1]) of 250 nM, an IC50 (hNav1.7; [2]) of 220 nM and an IC50 (hNav1.5; [1]) of 22000 nM.
For `CC[C@H](C)[C@@H]1NC(=O)[C@@H]2CSSC[C@@H]3NC(=O)[C@H](C(C)C)NC(=O)[C@H](CC(C)C)NC(=O)[C@H](CC(N)=O)NC(=O)[C@@H]4CCCN4C(=O)[C@H](CCCNC(=N)N)NC(=O)[C@H](CSSC[C@H](NC(=O)[C@@H](N)CC(=O)O)C(=O)N[C@@H](CC(C)C)C(=O)NCC(=O)N[C@@H](Cc4ccccc4)C(=O)N[C@@H](CCSC)C(=O)N[C@@H](CCCNC(=N)N)C(=O)N[C@@H](CCCCN)C(=O)N2)NC(=O)[C@H](CSSC[C@@H](C(=O)N[C@@H](CCCCN)C(=O)N[C@@H](Cc2ccc(O)cc2)C(=O)N[C@H](C(=O)N[C@@H](Cc2ccccc2)C(N)=O)C(C)C)NC(=O)[C@H](Cc2c[nH]c4ccccc24)NC(=O)[C@H](CCCCN)NC(=O)[C@H](Cc2cnc[nH]2)NC(=O)[C@H](CC(C)C)NC(=O)[C@H](CCCNC(=N)N)NC(=O)[C@H](CO)NC3=O)NC(=O)[C@H](CCCCN)NC(=O)[C@H](CC(=O)O)NC(=O)[C@H](CC(N)=O)NC(=O)[C@H](CC(=O)O)NC(=O)[C@@H]2CCCN2C1=O` [SEQ ID NO: 121, [Leu26]GpTx-1] (H-DCLGFMRKCIPDNDKCCRPNLVCSRLHKWCKYVF-NH2; disulfide 2-17, 9-23, 16-30), the IC50 (hNav1.3; Table 22, use, […]) was 70 nM, the IC50 (hNav1.7) was 70 nM and the IC50 (hNav1.5; Table 22, use, […]) was 10200 nM.
`CC[C@@H]1NC(=O)[C@H](Cc2ccccc2)NC(=O)CNC(=O)[C@H](CC(C)C)NC(=O)[C@@H](NC(=O)[C@@H](N)CC(=O)O)CSSC[C@@H]2NC(=O)[C@@H]3CSSC[C@@H](C(=O)N[C@@H](CCCCN)C(=O)N[C@@H](Cc4ccc(O)cc4)C(=O)N[C@H](C(=O)N[C@@H](Cc4ccccc4)C(N)=O)C(C)C)NC(=O)[C@H](Cc4c[nH]c5ccccc45)NC(=O)[C@H](CCCCN)NC(=O)[C@H](Cc4c[nH]cn4)NC(=O)[C@H]([C@@H](C)O)NC(=O)[C@H](CCCNC(=N)N)NC(=O)[C@H](CO)NC(=O)[C@H](CSSC[C@H](NC(=O)[C@H](CCCCN)NC(=O)[C@H](CCCNC(=N)N)NC1=O)C(=O)N[C@@H]([C@@H](C)CC)C(=O)N1CCC[C@H]1C(=O)N[C@@H](CC(=O)O)C(=O)N[C@@H](CC(N)=O)C(=O)N[C@@H](CC(=O)O)C(=O)N[C@@H](CCCCN)C(=O)N3)NC(=O)[C@H](C(C)C)NC(=O)[C@H](CC(C)C)NC(=O)[C@H](CC(N)=O)NC(=O)[C@@H]1CCCN1C(=O)[C@H](CCCNC(=N)N)NC2=O` [SEQ ID NO: 124] showed an IC50 (hNav1.3; [1]) of 100 nM, an IC50 (hNav1.7; [2]) of 110 nM and an IC50 (hNav1.5; [1]) of 10600 nM.
For `CC[C@@H]1NC(=O)[C@@H]2CSSC[C@@H](C(=O)N[C@@H](CCCCN)C(=O)N[C@@H](Cc3ccc(O)cc3)C(=O)N[C@H](C(=O)N[C@@H](Cc3ccccc3)C(N)=O)C(C)C)NC(=O)[C@H](Cc3c[nH]c4ccccc34)NC(=O)[C@H](CCCCN)NC(=O)[C@H](Cc3c[nH]cn3)NC(=O)[C@H]([C@@H](C)O)NC(=O)[C@H](CCCNC(=N)N)NC(=O)[C@H](CO)NC(=O)[C@H](CSSC[C@H](NC(=O)[C@H](CCCCN)NC(=O)[C@H](CCCNC(=N)N)NC(=O)[C@H](CCSC)NC(=O)[C@H](Cc3ccccc3)NC(=O)CNC(=O)[C@H](CC(C)C)NC(=O)[C@H](CC)NC(=O)[C@@H](N)CC(=O)O)C(=O)N[C@@H]([C@@H](C)CC)C(=O)N3CCC[C@H]3C(=O)N[C@@H](CC(=O)O)C(=O)N[C@@H](CC(N)=O)C(=O)N[C@@H](CC(=O)O)C(=O)N[C@@H](CCCCN)C(=O)N2)NC(=O)[C@H](C(C)C)NC(=O)[C@H](CC(C)C)NC(=O)[C@H](CC(N)=O)NC(=O)[C@@H]2CCCN2C(=O)[C@H](CCCNC(=N)N)NC1=O` [SEQ ID NO: 125, [2-Abu-2,17]GpTx-1] (H-D[Abu]LGFMRKCIPDNDKC[Abu]RPNLVCSRTHKWCKYVF-NH2; disulfide 9-23, 16-30), the IC50 (hNav1.3; use-dependent block, hNav1.3) was 240 nM, the IC50 (hNav1.7; IonWorks Quattro, use-dependent block, hNav1.7, read-out: IWQ Use Nav1.7) was 300 nM and the IC50 (hNav1.5; use-dependent block, hNav1.5) was 9510 nM.
Work on `CC[C@H](C)[C@@H]1NC(=O)[C@@H]2CSSC[C@@H]3NC(=O)[C@H](C(C)C)NC(=O)[C@H](CC(C)C)NC(=O)[C@H](CC(N)=O)NC(=O)[C@@H]4CCCN4C(=O)[C@H](CCCNC(=N)N)NC(=O)[C@H](CSSC[C@H](NC(=O)[C@@H](N)CC(=O)O)C(=O)N[C@@H](CC(C)C)C(=O)NCC(=O)N[C@@H](Cc4ccc5ccccc5c4)C(=O)N[C@@H](CCSC)C(=O)N[C@@H](CCCNC(=N)N)C(=O)N[C@@H](CCCCN)C(=O)N2)NC(=O)[C@H](CSSC[C@@H](C(=O)N[C@@H](CCCCN)C(=O)N[C@@H](Cc2ccc(O)cc2)C(=O)N[C@H](C(=O)N[C@@H](Cc2ccccc2)C(N)=O)C(C)C)NC(=O)[C@H](Cc2c[nH]c4ccccc24)NC(=O)[C@H](CCCCN)NC(=O)[C@H](Cc2c[nH]cn2)NC(=O)[C@H]([C@@H](C)O)NC(=O)[C@H](CCCNC(=N)N)NC(=O)[C@H](CO)NC3=O)NC(=O)[C@H](CCCCN)NC(=O)[C@H](CC(=O)O)NC(=O)[C@H](CC(N)=O)NC(=O)[C@H](CC(=O)O)NC(=O)[C@@H]2CCCN2C1=O` [SEQ ID NO: 128] yielded an IC50 (hNav1.3; [1]) of 50 nM, an IC50 (hNav1.7; [2]) of 110 nM and an IC50 (hNav1.5; [1]) of 6110 nM.
Work on `CC[C@H](C)[C@@H]1NC(=O)[C@@H]2CSSC[C@@H]3NC(=O)[C@H](C(C)C)NC(=O)[C@H](CC(C)C)NC(=O)[C@H](CC(N)=O)NC(=O)[C@@H]4CCCN4C(=O)[C@H](CCCNC(=N)N)NC(=O)[C@H](CSSC[C@H](NC(=O)[C@@H](N)CC(=O)O)C(=O)N[C@@H](CC(C)C)C(=O)NCC(=O)N[C@@H](Cc4ccccc4)C(=O)N[C@@H](CCSC)C(=O)N[C@@H](CCCNC(=N)N)C(=O)N[C@@H](CCCCN)C(=O)N2)NC(=O)[C@H](CSSC[C@@H](C(=O)N[C@@H](CCCCN)C(=O)N[C@@H](Cc2ccc(O)cc2)C(=O)N[C@H](C(=O)N[C@@H](Cc2ccccc2)C(N)=O)C(C)C)NC(=O)[C@H](Cc2ccc4ccccc4c2)NC(=O)[C@H](CCCCN)NC(=O)[C@H](Cc2c[nH]cn2)NC(=O)[C@H]([C@@H](C)O)NC(=O)[C@H](CCCNC(=N)N)NC(=O)[C@H](CO)NC3=O)NC(=O)[C@H](CCCCN)NC(=O)[C@H](CC(=O)O)NC(=O)[C@H](CC(N)=O)NC(=O)[C@H](CC(=O)O)NC(=O)[C@@H]2CCCN2C1=O` [SEQ ID NO: 129, [2-Nal29]GpTx-1] (H-DCLGFMRKCIPDNDKCCRPNLVCSRTHK[2Nal]CKYVF-NH2; disulfide 2-17, 9-23, 16-30) yielded an IC50 (hNav1.3; Table 24, use, […]) of 730 nM, an IC50 (hNav1.7; Table 24, IonWorks Quattro, use, […], read-out: IWQ Use Nav1.7) of 580 nM and an IC50 (hNav1.5; Table 24, use, […]) of 11700 nM.
